pIC50, pKi: −log10 of the molar value. Where two headings read alike, the source gives them in different places.
How the values were obtained:
[1] = system: Aβ production in Chinese hamster ovary cells that over-express human APP695 with the London and Swedish mutations; experiment: Cellular Aβ IC50 determination (Aβ40 sandwich ELISA); type: cell-based; conditions: Cricetulus griseus
How it was run: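 APP695 (London/Swedish)-overexpressing CHO cells were treated 48 h after seeding with serial dilutions from near 4 μM top concentration (0.4% DMSO) for 24 h at 37 °C. Secreted Aβ40 was quantified by sandwich ELISA relative to controls and fit to a 4-parameter IC50 model.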

cathepsin D = cathepsin D (Homo sapiens, UniProt P07339); experiment: Inhibition of cathepsin D activity (substrate peptide ELDLAVEFWHDR, MALDI-TOF); type: biochemical
Description: [The procedure below names another target; the source lists this target under the same test.] (§1) A substrate peptide NH3-ELDLAVEFWHDR-CO2 (SEQ ID NO.: 1) was dissolved at 2 mg/mL in 10% glacial acetic acid and diluted into 0.009M NaOH to obtain μM concentration at pH 4.1. After equilibration at 37 degrees C., the reactions were initiated by the addition of an aliquot of memapsin 2. Aliquots were removed at time intervals, and combined with an equal volume of MALDI-TOF matrix (α-hydroxycinnamic acid in acetone, 20 mg/mL) and immediately spotted in duplicate onto a stainless-steel MALDI sample plate. MALDI-TOF mass spectrometry was performed on a PE Biosystems Voyager DE. The instrument was operated at 25,000 accelerating volts in positive mode with a 150 ns delay. Ions with a mass-to-charge ratio (m/z) were detected in the range of 650-2000 atomic mass units. Data were analyzed by the Voyager Data Explorer module to obtain ion intensity data for mass species of substrates and corresponding products in a given mixture. Relative product formation was calculated as the ratio of signal intensity of the product to the sum of signal intensities of both product and the corresponding substrate. Relative product formed per unit time was obtained from non-linear regression analysis of the data representing the initial 15% formation of product using the model: 1−e^−kT, where k was the relative hydrolytic rate constant and T was time in seconds. Initial rates were expressed relative to uninhibited controls and fit to a tight-binding model of competitive inhibition as above.

memapsin 2 = memapsin 2 (Homo sapiens, UniProt P56817); experiment: Inhibition of memapsin 2 beta-secretase activity toward fluorogenic substrate FS-2; type: biochemical
How it was run: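 Memapsin 2 was preincubated with compound 20 min at pH 4, 37 °C, then reacted with fluorogenic substrate FS-2 (MCA-SEVNLDAEFK-DNP), an APP-derived Swedish-variant peptide. Inhibition was followed kinetically by fluorescence.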

memapsin 1 = target: T1, memapsin 1 (Homo sapiens, UniProt Q9Y5Z0); experiment: Inhibition of memapsin 1 beta-secretase activity (substrate peptide ELDLAVEFWHDR, MALDI-TOF); type: biochemical
T1 sequence (Q9Y5Z0 63-518): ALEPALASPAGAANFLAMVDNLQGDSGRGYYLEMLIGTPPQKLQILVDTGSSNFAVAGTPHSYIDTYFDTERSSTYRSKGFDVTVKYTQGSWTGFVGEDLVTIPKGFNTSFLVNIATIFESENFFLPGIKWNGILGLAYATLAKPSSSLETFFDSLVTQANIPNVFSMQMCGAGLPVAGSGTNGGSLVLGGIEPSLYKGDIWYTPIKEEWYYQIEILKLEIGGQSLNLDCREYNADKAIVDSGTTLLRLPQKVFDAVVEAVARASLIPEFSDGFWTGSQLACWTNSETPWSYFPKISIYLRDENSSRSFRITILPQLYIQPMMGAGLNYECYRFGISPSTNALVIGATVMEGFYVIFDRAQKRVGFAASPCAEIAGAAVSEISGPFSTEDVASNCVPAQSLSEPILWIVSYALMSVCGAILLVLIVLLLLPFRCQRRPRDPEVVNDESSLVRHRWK
Description: [The procedure below names another target; the source lists this target under the same test.] as §1

[2] = Aβ40 in CHO cells over-expressing human APP695, 24 h incubation
[3] = cathepsin D, pH 4.1, 37 degrees C., read-out: CDKi
[4] = memapsin 2, pH 4, 37° C., 20 minutes pre-incubation, substrate FS-2, read-out: M2Ki
[5] = memapsin 1, pH 4.1, 37 degrees C., read-out: M1Ki

Chain of cathepsin D (P07339 65-412, species assumed): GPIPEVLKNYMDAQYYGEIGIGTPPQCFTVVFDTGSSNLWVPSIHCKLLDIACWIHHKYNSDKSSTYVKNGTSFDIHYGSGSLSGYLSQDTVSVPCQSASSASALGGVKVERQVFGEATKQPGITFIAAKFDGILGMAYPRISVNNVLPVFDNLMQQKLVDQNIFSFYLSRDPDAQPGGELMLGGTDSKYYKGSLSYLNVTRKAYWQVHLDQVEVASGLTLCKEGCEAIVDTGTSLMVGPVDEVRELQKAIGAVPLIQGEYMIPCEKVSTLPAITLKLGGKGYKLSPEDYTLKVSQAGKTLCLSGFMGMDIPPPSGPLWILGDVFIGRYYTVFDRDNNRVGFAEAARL
Chain of memapsin 2 (P56817 46-501): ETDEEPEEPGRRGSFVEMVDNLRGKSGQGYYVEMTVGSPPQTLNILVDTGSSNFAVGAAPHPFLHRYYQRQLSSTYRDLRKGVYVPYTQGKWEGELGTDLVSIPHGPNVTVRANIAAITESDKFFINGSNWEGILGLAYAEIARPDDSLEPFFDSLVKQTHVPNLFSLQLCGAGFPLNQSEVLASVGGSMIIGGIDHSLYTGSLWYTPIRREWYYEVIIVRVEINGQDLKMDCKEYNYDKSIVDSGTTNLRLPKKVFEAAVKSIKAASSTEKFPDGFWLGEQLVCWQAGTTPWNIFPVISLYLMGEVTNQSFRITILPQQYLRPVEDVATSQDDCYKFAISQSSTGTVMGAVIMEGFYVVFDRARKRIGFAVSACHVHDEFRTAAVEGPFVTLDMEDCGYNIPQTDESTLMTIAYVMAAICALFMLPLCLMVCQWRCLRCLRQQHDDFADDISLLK

pIC50 ([1]; cellular Aβ)	pKi (cathepsin D; read-out: CathD Ki)	pKi (memapsin 2; read-out: M2 Ki)	pKi (memapsin 1; read-out: M1 Ki)	pIC50 [1, 2]	pKi (cathepsin D; [3])	pKi (memapsin 2; [4])	pKi (memapsin 1; [5])	SMILES
7.64	5.97	8.15	6.08					Cc1csc([C@H]2CCCN2C(=O)c2cccc(C(=O)N[C@@H](Cc3ccccc3)[C@H](O)CNCc3cccc(C(F)(F)F)c3)c2)n1 [N-((2S,3R)-3-hydroxy-1-phenyl-4-(3-(trifluoromethyl)benzylamino)butan-2-yl)-3-((R)-2-(4-methylthiazol-2-yl)pyrrolidine-1-carbonyl)benzamide]
				> 6.52	< 6.30	> 7.00	> 6.52	Cc1cc(C(=O)N[C@@H](Cc2ccccc2)[C@H](O)CNCc2cccc(C(F)(F)F)c2)cc(C(=O)N2CCC[C@@H]2c2nc(C)cs2)c1 [Compound 12, N-((2S,3R)-3-hydroxy-1-phenyl-4-(3-(trifluoromethyl)benzylamino)butan-2-yl)-3-methyl-5-((R)-2-(4-methylthiazol-2-yl)pyrrolidine-1-carbonyl)benzamide]
				> 6.52	< 6.30	> 7.00	6.30 to 6.52	Cc1csc([C@H]2CCCN2C(=O)c2cccc(C(=O)N[C@@H](Cc3ccccc3)[C@H](O)CNCc3cccc(C(C)(C)C)c3)c2)n1 [Compound 10, N-((2S,3R)-4-(3-tert-butylbenzylamino)-3-hydroxy-1-phenylbutan-2-yl)-3-((R)-2-(4-methylthiazol-2-yl)pyrrolidine-1-carbonyl)benzamide]
				> 6.52	> 6.52	> 7.00	> 6.52	Cc1cc(C(=O)N[C@@H](Cc2ccccc2)[C@H](O)CNCc2cccc(C(C)(C)C)c2)cc(C(=O)N2CCC[C@@H]2c2nc(C)cs2)c1 [Compound 14, N-((2S,3R)-4-(3-tert-butylbenzylamino)-3-hydroxy-1-phenylbutan-2-yl)-3-methyl-5-((R)-2-(4-methylthiazol-2-yl)pyrrolidine-1-carbonyl)benzamide]

Source: patent US8299267B2, “(3-hydroxy-4-amino-butan-2-yl) -3- (2-thiazol-2-yl-pyrrolidine-1-carbonyl) benzamide derivatives and related compounds as beta-secretase inhibitors for treating” (CoMentis, Inc., priority 2007, dated 2012)
